The text below walks through data of PubChem BioAssay (NCI).

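96-well plates; 48 h exposure; 5 concentrations. Endpoints by linear interpolation between flanking doses. Not reached: highest tested concentration assigned. GI50: concentration for 50% inhibition of growth. TGI: concentration producing complete growth inhibition.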

Among the test systems are MOLT-4 leukemia; HL-60(TB) leukemia; OVCAR-8 ovarian; SK-OV-3 ovarian; DU-145 prostate; HCT-116 colon; SK-MEL-2 melanoma; T-47D breast; KM20L2 colon; SNB-78 CNS; DLD-1 colon; LXFL 529 NSCLC.
Assay in all cases: DTP human tumour cell line panel, 48 h

In the case of `O=C(O)CC(C(=O)O)C1c2ccccc2-c2ccccc21` (stereo not drawn), the TGI with MOLT-4 leukemia, with HL-60(TB) leukemia, in the assay with OVCAR-8 ovarian, in the assay on SK-OV-3 ovarian, in the assay with DU-145 prostate and in the assay with HCT-116 colon was > 100 µM each time. In addition, the TGI with SK-MEL-2 melanoma and with T-47D breast was > 100 µM throughout.

On to `CC(C)=CCc1c(O)ccc2c1OC1c3ccc(O)c(CC=C(C)C)c3OCC21` (stereo not drawn), for which the concentration for total growth inhibition (TGI) with MOLT-4 leukemia was 16 µM; in the assay on KM20L2 colon, 34 µM; with HL-60(TB) leukemia, 31.4 µM; in the assay on OVCAR-8 ovarian, 52.6 µM; in the assay on SK-OV-3 ovarian, 35.1 µM; with SNB-78 CNS it was 33 µM. For the same compound, the TGI is 18.9 µM in the assay on DLD-1 colon, 18.3 µM in the assay on HCT-116 colon and 34.3 µM in the assay with SK-MEL-2 melanoma.

Regarding `CN1CCC(C(=O)NNc2ccccc2)CC1`, the concentration for total growth inhibition (TGI) in the assay with MOLT-4 leukemia is > 100 µM; in the assay with KM20L2 colon it was > 33.6 µM; in the assay on HL-60(TB) leukemia it was > 100 µM; in the assay on LXFL 529 NSCLC, 5.69 µM; in the assay on OVCAR-8 ovarian it was > 100 µM; in the assay on SK-OV-3 ovarian it was > 100 µM. Moreover, the concentration for total growth inhibition (TGI) is > 100 µM in the assay with SNB-78 CNS, > 100 µM with DLD-1 colon, > 100 µM in the assay with HCT-116 colon and > 46.4 µM in the assay on SK-MEL-2 melanoma.

As to `N=C(N)c1ccc(-c2ccc(-c3cncc4ccccc34)s2)cc1F`, the GI50 was 1840 nM with SK-OV-3 ovarian and 1860 nM in the assay on DU-145 prostate. The concentration for total growth inhibition (TGI) in the assay with SK-OV-3 ovarian amounted to 3.63 µM; in the assay on DU-145 prostate, 3.45 µM.

`COc1cc(C(C)(C)C)cc(OC)c1C(O)(c1c(OC)cc(C(C)(C)C)cc1OC)c1c(OC)cc(C(C)(C)C)cc1OC`: the concentration for 50% growth inhibition (GI50) in the assay on HL-60(TB) leukemia was 140 nM; in the assay on HCT-116 colon it was 249 nM; in the assay on SK-MEL-2 melanoma, 325 nM. The concentration for total growth inhibition (TGI) amounted to 0.394 µM in the assay with HL-60(TB) leukemia, 0.901 µM with HCT-116 colon and 0.692 µM in the assay on SK-MEL-2 melanoma.

Take `FC(F)(F)c1ccc2c(c1)nc(Cc1ccc(Cl)c(Cl)c1)n2CC1CCCN2CCCCC12` (stereo not drawn): the concentration for total growth inhibition (TGI) was > 100 µM in the assay on MOLT-4 leukemia; 51.3 µM with HL-60(TB) leukemia; > 100 µM in the assay on OVCAR-8 ovarian; 90 µM in the assay on SK-OV-3 ovarian; > 100 µM in the assay on DU-145 prostate; 30.6 µM with HCT-116 colon. The TGI in the assay with SK-MEL-2 melanoma was 76.3 µM; with T-47D breast it was > 100 µM.

In the case of `CCN=C=NCCCN(C)C`, the total growth inhibition concentration (TGI) in the assay with MOLT-4 leukemia, in the assay with HL-60(TB) leukemia, in the assay with OVCAR-8 ovarian, in the assay on SK-OV-3 ovarian, in the assay on DU-145 prostate and with HCT-116 colon was > 100 µM throughout. Besides, the total growth inhibition concentration (TGI) with SK-MEL-2 melanoma is > 100 µM.

On to `C=C(CN(C)C)C(=O)c1ccc(C)cc1C`, for which the TGI stood at 2.25 µM in the assay with MOLT-4 leukemia; 39 µM in the assay with KM20L2 colon; 11.6 µM in the assay with HL-60(TB) leukemia; 26.9 µM in the assay on LXFL 529 NSCLC; 37.4 µM with OVCAR-8 ovarian; 39.6 µM with SK-OV-3 ovarian. The concentration for total growth inhibition (TGI) in the assay on SNB-78 CNS is 60.4 µM; in the assay on DU-145 prostate it was 33.5 µM; in the assay with DLD-1 colon it was 14.2 µM; in the assay on HCT-116 colon, 13 µM; with SK-MEL-2 melanoma, 37 µM; with T-47D breast, 18.6 µM.

Turning to `O=C(/C=c1\oc(=O)/c(=C/C(=O)c2ccc(Cl)cc2)oc1=O)c1ccc(Cl)cc1`, the TGI is 56 µM with MOLT-4 leukemia; > 100 µM in the assay on HL-60(TB) leukemia; > 100 µM with OVCAR-8 ovarian; > 100 µM in the assay on SK-OV-3 ovarian; > 100 µM in the assay with DU-145 prostate; > 100 µM with HCT-116 colon. In addition, the TGI in the assay on SK-MEL-2 melanoma and in the assay on T-47D breast was > 100 µM in each case.

With `C/C1=N\NC(=O)c2ccccc2C(=O)N/N=C(\C)c2cccc1n2.O=[N+]([O-])[O-].[Zn+2]`, the total growth inhibition concentration (TGI) in the assay with MOLT-4 leukemia, with KM20L2 colon, with LXFL 529 NSCLC, in the assay with OVCAR-8 ovarian, with SK-OV-3 ovarian and in the assay with SNB-78 CNS was > 100 µM throughout. In addition, the TGI in the assay with DLD-1 colon, in the assay on HCT-116 colon and in the assay on SK-MEL-2 melanoma was > 100 µM throughout.

With `COc1ccc(-c2nn(-c3ccc(NC(=O)Nc4ccc(Cl)c(Cl)c4)cc3)cc2-c2ccncc2)cc1Cl`, the GI50 was 1890 nM in the assay on MOLT-4 leukemia; 2210 nM in the assay with HL-60(TB) leukemia; 2720 nM in the assay on OVCAR-8 ovarian; 3970 nM in the assay on DU-145 prostate; 1650 nM with HCT-116 colon; 2020 nM in the assay on SK-MEL-2 melanoma. Also, the GI50 in the assay with T-47D breast was 3.24 µM. In addition, the TGI was > 100 µM in the assay with MOLT-4 leukemia; 6.6 µM in the assay on HL-60(TB) leukemia; > 100 µM in the assay with OVCAR-8 ovarian; > 100 µM in the assay on DU-145 prostate; 11.7 µM in the assay with HCT-116 colon; 4.76 µM in the assay on SK-MEL-2 melanoma. Moreover, the TGI in the assay with T-47D breast is > 100 µM.

As to `c1ccc(-n2cnnc2-c2nsc3ccccc23)cc1`, the concentration for total growth inhibition (TGI) in the assay with MOLT-4 leukemia, in the assay with KM20L2 colon, with HL-60(TB) leukemia, with LXFL 529 NSCLC, in the assay with OVCAR-8 ovarian and in the assay on SNB-78 CNS was > 100 µM in each case. For the same compound, the TGI with HCT-116 colon and in the assay with SK-MEL-2 melanoma was > 100 µM throughout.

What is called TGI is the concentration at which net growth stops. A higher TGI goes with less potent growth arrest. In general, GI50 refers to the concentration giving 50% growth inhibition.
